Results from PubChem BioAssay (NCI).
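1) Cells in 96-well plates. 2) Compound, 48 h, 5 concentrations. 3) Linear interpolation between surrounding doses. 4) Unreached endpoint = highest concentration. The concentration for full growth arrest is given as TGI.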

Columns and labels:
Assay in all cases: NCI anticancer screen, dose series, 48 h
RPMI-8226 leukemia = system: RPMI-8226 leukemia
BT-549 breast = system: BT-549 breast
IGROV1 ovarian = system: IGROV1 ovarian
NCI-H226 lung = system: NCI-H226 lung
LOX IMVI melanoma = system: LOX IMVI melanoma
SN12C renal = system: SN12C renal
HOP-62 NSCLC = system: HOP-62 NSCLC
NCI/ADR-RES ovarian = system: NCI/ADR-RES ovarian
HCC-2998 colon = system: HCC-2998 colon
NCI-H460 lung = system: NCI-H460 lung

Row | Compound | TGI (RPMI-8226 leukemia) | TGI (BT-549 breast) | TGI (IGROV1 ovarian) | TGI (NCI-H226 lung) | TGI (LOX IMVI melanoma) | TGI (SN12C renal) | TGI (HOP-62 NSCLC) | TGI (NCI/ADR-RES ovarian) | TGI (HCC-2998 colon) | TGI (NCI-H460 lung)
1 | CCN(CC)CCn1c(=O)c2c(C)c3oc4ccccc4oc3c(C)c2c1=O | > 100 µM | > 100 µM | > 100 µM | > 100 µM | > 100 µM | > 100 µM | > 100 µM | > 100 µM | > 100 µM | > 100 µM
2 | O=C(CN1CCCCC1)Nc1ccc2c(c1)C1Oc3ccccc3CC1CO2 (stereo unspecified) | > 100 µM | 44.6 µM | 58 µM | 55.8 µM | 30 µM | > 100 µM | 34.1 µM | 88.3 µM | 34.4 µM | –
3 | CCN(CC)c1ccc(/C=C2\CCc3ccc([N+](=O)[O-])cc3C2=O)cc1 | > 100 µM | > 100 µM | > 100 µM | > 100 µM | > 100 µM | > 100 µM | – | > 30.7 µM | > 100 µM | > 48.9 µM
4 | CCOC1NC(=O)Oc2cc3ccccc3cc21 (stereo unspecified) | > 100 µM | > 100 µM | > 100 µM | > 100 µM | > 100 µM | > 100 µM | > 100 µM | > 100 µM | > 100 µM | > 100 µM
5 | CC1(C)C2CCC1C(=O)[C@@]1(C=CC(=O)CC1)C2 (stereo partly specified) | > 100 µM | > 100 µM | > 100 µM | > 100 µM | > 100 µM | > 100 µM | > 100 µM | > 100 µM | > 100 µM | > 100 µM
6 | Cc1c(C)c(C)c(-n2c(=O)n(C)c(=O)n2-c2cc(C(C)(C)C)cc(C(C)(C)C)c2O)c(C)c1C | 29 µM | 28.1 µM | 22 µM | 22.1 µM | 26.8 µM | 21.7 µM | 28 µM | 23.4 µM | 24.6 µM | 27.1 µM
7 | CCCCc1ccc(Nc2nc(Cl)c3c(ncn3C3CC(Oc4ccc(C)cc4)C(COc4ccc(C)cc4)O3)n2)cc1 (stereo unspecified) | > 100 µM | > 100 µM | > 100 µM | > 100 µM | > 100 µM | > 100 µM | > 100 µM | > 100 µM | > 100 µM | > 100 µM
8 | COc1ccc(-c2ncn(C[Si](C)(C)C)c2-c2ccc(OC)cc2)cc1 | 4.57 µM | 72.3 µM | 23.1 µM | 24.5 µM | 21 µM | 24.3 µM | 30.7 µM | 29.1 µM | 7.34 µM | 15.3 µM
9 | O=C(C/C(=N/O)C(F)(F)F)c1cccs1 | > 100 µM | > 100 µM | > 100 µM | > 100 µM | > 100 µM | > 100 µM | > 100 µM | > 100 µM | > 100 µM | > 100 µM
10 | O=c1c2cnccc2cc2c3ccccc3ccn12 | > 100 µM | > 100 µM | 33.3 µM | > 100 µM | > 100 µM | > 100 µM | > 100 µM | > 100 µM | > 100 µM | > 100 µM
11 | CCOC(=O)[C@@]1(C)CC(O)C(=O)N1C (stereo partly specified) | > 100 µM | > 100 µM | > 100 µM | > 100 µM | > 100 µM | > 100 µM | > 100 µM | > 100 µM | > 100 µM | –
12 | CC(C)(C)NC(=O)/C(=C\Sc1ccccc1)c1ccccc1 | > 100 µM | > 100 µM | > 100 µM | > 100 µM | > 79.4 µM | > 100 µM | > 100 µM | > 100 µM | > 100 µM | > 100 µM
13 | COc1ccc2c(c1)NC1(CCN(CCCC(=O)c3ccc(F)cc3)CC1)N=N2 | 42.2 µM | 74.7 µM | 64 µM | 95.6 µM | 35.3 µM | 64.4 µM | 60.3 µM | > 100 µM | 28.2 µM | 93.5 µM
14 | Cc1cc2c(c(S(=O)(=O)c3ccccc3[N+](=O)[O-])c1)NCCC2 | > 100 µM | > 100 µM | > 100 µM | > 100 µM | > 100 µM | > 100 µM | > 100 µM | > 100 µM | > 100 µM | > 100 µM
15 | CN(C)CCOc1ccc(-c2c(Oc3ccccc3)c(=O)oc3ccccc23)cc1 | 40.8 µM | 26.6 µM | 25.2 µM | 31.6 µM | 25.9 µM | 26.9 µM | – | 25 µM | 20.8 µM | 29 µM
16 | CO/N=C(\C([O-])=N\[n+]1cnn(CC(=O)OC(C)(C)C)c1)c1csc(NC(c2ccccc2)(c2ccccc2)c2ccccc2)n1 | > 10 µM | > 10 µM | > 10 µM | > 10 µM | > 10 µM | > 10 µM | > 10 µM | > 10 µM | > 10 µM | > 10 µM
17 | C/C=C(\C)C(=O)O[C@@H]1CC(C)(C)CC2C3=CCC4[C@]56CC[C@](O)(OC5)C(C)(C)C6CC[C@@]4(C)C3(C)CC[C@]21C(=O)O (stereo partly specified) | > 100 µM | > 100 µM | > 100 µM | > 100 µM | > 100 µM | > 100 µM | > 100 µM | > 100 µM | > 100 µM | > 100 µM
18 | Nc1ccc2ccc(N3CCNCC3)nc2n1 | > 100 µM | > 100 µM | > 100 µM | 85.2 µM | > 100 µM | > 100 µM | > 100 µM | > 100 µM | > 100 µM | > 100 µM
19 | CCCCCCCCP(=O)(O)OP(=O)(O)OCC1OC(n2ccc(N)nc2=O)C(O)C1O (stereo unspecified) | > 100 µM | > 100 µM | > 100 µM | > 100 µM | > 100 µM | > 100 µM | > 100 µM | > 100 µM | > 100 µM | > 100 µM
